SMILES strings stand for the structures.

Recombinant human cathepsin S (CatS), sequence (P25774 115-331): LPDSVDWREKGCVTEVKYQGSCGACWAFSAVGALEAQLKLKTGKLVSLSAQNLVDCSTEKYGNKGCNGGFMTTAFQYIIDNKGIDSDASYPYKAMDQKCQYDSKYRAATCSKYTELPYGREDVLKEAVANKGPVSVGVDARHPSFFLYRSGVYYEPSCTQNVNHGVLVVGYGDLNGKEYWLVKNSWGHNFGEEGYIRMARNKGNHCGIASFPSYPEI

One experiment addresses Recombinant human cathepsin S (CatS) (Homo sapiens, UniProt P25774). The experiment can be described thus: Recombinant human cathepsin S (CatS) inhibition assay, fluorogenic substrate Z-Valine-Valine-Arginine-AMC.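 Note: Baculovirus-expressed CatS in pH 5.0 sodium acetate buffer with DTT and NaCl, fluorescence read each minute over 20 min, inhibition derived from rate slope.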
Conditions: not given
By IC50 is commonly meant the concentration at which inhibition is half-maximal. Consider `CC(C)(C)OC(=O)N1CCC(C2CCN(C[C@H](O)Cn3nc(-c4ccc(Cl)c(C#Cc5ccc(Cl)cc5)c4)c4c3CCN(S(C)(=O)=O)C4)CC2)CC1` [Example 230, 1,1-Dimethylethyl 1′-{(2S)-3-[3-{4-chloro-3-[(4-chlorophenyl)ethynyl]phenyl}-5-(methylsulfonyl)-4,5,6,7-tetrahydro-1H-pyrazolo[4,3-c]pyridin-1-yl]-2-hydroxypropyl}-4,4′-bipiperidine-1-carboxylate], for which the IC50 was 0.01 µM. For `CC(C)CC#Cc1cc(-c2nn(C[C@@H](O)CN3CCC(C4CCN(C(=O)OC(C)(C)C)CC4)CC3)c3c2CN(S(C)(=O)=O)CC3)ccc1Cl` [Example 231, 1,1-Dimethylethyl 1′-[(2S)-3-{3-[4-chloro-3-(4-methylpent-1-yn-1-yl)phenyl]-5-(methylsulfonyl)-4,5,6,7-tetrahydro-1H-pyrazolo[4,3-c]pyridin-1-yl}-2-hydroxypropyl]-4,4′-bipiperidine-1-carboxylate], the 50% inhibitory concentration (IC50) amounted to 2.69 µM. For the compound `CC(C)(C)OC(=O)N1CCC(C2CCN(C[C@H](O)Cn3nc(-c4ccc(Cl)c(C#CC5CCCCC5)c4)c4c3CCN(S(C)(=O)=O)C4)CC2)CC1` [Example 233, 1,1-Dimethylethyl 1′-[(2S)-3-{3-[4-chloro-3-(cyclohexylethynyl)phenyl]-5-(methylsulfonyl)-4,5,6,7-tetrahydro-1H-pyrazolo[4,3-c]pyridin-1-yl}-2-hydroxypropyl]-4,4′-bipiperidine-1-carboxylate], the IC50 was 7.92 µM. `CCN(CC)CC#Cc1cc(-c2nn(C[C@@H](O)CN3CCC(C4CCN(C(=O)OC(C)(C)C)CC4)CC3)c3c2CN(S(C)(=O)=O)CC3)ccc1Cl` [Example 236, 1,1-Dimethylethyl 1′-{(2S)-3-[3-{4-chloro-3-[3-(diethylamino)prop-1-yn-1-yl]phenyl}-5-(methylsulfonyl)-4,5,6,7-tetrahydro-1H-pyrazolo[4,3-c]pyridin-1-yl]-2-hydroxypropyl}-4,4′-bipiperidine-1-carboxylate]: the IC50 stood at 7.13 µM. On the same count and under the same terms, next, `CC(C)(C)OC(=O)N1CCC(C2CCN(C[C@H](O)Cn3nc(-c4ccc(Cl)c(C#Cc5ccc(Cl)cc5)c4)c4c3CCN(C(N)=O)C4)CC2)CC1` [Example 237, 1,1-Dimethylethyl 1′-{(2S)-3-[5-(aminocarbonyl)-3-{4-chloro-3-[(4-chlorophenyl)ethynyl]phenyl}-4,5,6,7-tetrahydro-1H-pyrazolo[4,3-c]pyridin-1-yl]-2-hydroxypropyl}-4,4′-bipiperidine-1-carboxylate]: 0.01 µM; `NC(=O)N1CCc2c(c(-c3ccc(Cl)c(C#Cc4ccc(Cl)cc4)c3)nn2C[C@@H](O)CN2CCC(C3CCNCC3)CC2)C1` [Example 238, 1-[(2S)-3-(4,4′-Bipiperidin-1-yl)-2-hydroxypropyl]-3-{4-chloro-3-[(4-chlorophenyl)ethynyl]phenyl}-1,4,6,7-tetrahydro-5H-pyrazolo[4,3-c]pyridine-5-carboxamide]: 0.003 µM. As for `CN1CCC(C2CCN(C[C@H](O)Cn3nc(-c4ccc(Cl)c(C#Cc5ccc(Cl)cc5)c4)c4c3CCN(S(C)(=O)=O)C4)CC2)CC1` [Example 240, (2S)-1-[3-{4-Chloro-3-[(4-chlorophenyl)ethynyl]phenyl}-5-(methylsulfonyl)-4,5,6,7-tetrahydro-1H-pyrazolo[4,3-c]pyridin-1-yl]-3-(1′-methyl-4,4′-bipiperidin-1-yl)propan-2-ol], the IC50 stood at 0.01 µM. In the case of `CC(=O)N1CCC(C2CCN(C[C@H](O)Cn3nc(-c4ccc(Cl)c(C#Cc5ccc(Cl)cc5)c4)c4c3CCN(S(C)(=O)=O)C4)CC2)CC1` [Example 241, (2S)-1-(1′-Acetyl-4,4′-bipiperidin-1-yl)-3-[3-{4-chloro-3-[(4-chlorophenyl)ethynyl]phenyl}-5-(methylsulfonyl)-4,5,6,7-tetrahydro-1H-pyrazolo[4,3-c]pyridin-1-yl]propan-2-ol], the 50% inhibitory concentration (IC50) was found to be 0.03 µM.

As for `CC(C)(C)OC(=O)N1CCC(C2CCN(C[C@H](O)Cn3nc(-c4ccc(Cl)c(CCc5ccc(Cl)cc5)c4)c4c3CCN(C(N)=O)C4)CC2)CC1` [Example 242, 1,1-Dimethylethyl 1′-{(2S)-3-[5-(aminocarbonyl)-3-{4-chloro-3-[2-(4-chlorophenyl)ethyl]phenyl}-4,5,6,7-tetrahydro-1H-pyrazolo[4,3-c]pyridin-1-yl]-2-hydroxypropyl}-4,4′-bipiperidine-1-carboxylate], the half-inhibitory concentration (IC50) worked out at 0.03 µM. As to `C[C@H]1COCCN1CCCn1nc(-c2ccc(Cl)c(CCc3ccc(CNCc4ccc(Cl)cc4)cc3)c2)c2c1CCN(C(=O)C(N)=O)C2` [Example 243, 2-[3-(4-Chloro-3-{2-[4-({[(4-chlorophenyl)methyl]amino}methyl)phenyl]ethyl}phenyl)-1-{3-[(3S)-3-methylmorpholin-4-yl]propyl}-1,4,6,7-tetrahydro-5H-pyrazolo[4,3-c]pyridin-5-yl]-2-oxoacetamide], the IC50 is 0.04 µM.

The experiment is the same for the next values; noted with them: CatS IC50.
Take `CC(C)(C)OC(=O)N1CCC(C2CCN(C[C@H](O)Cn3nc(-c4ccc(Cl)c(C#CCc5ccccc5)c4)c4c3CCN(S(C)(=O)=O)C4)CC2)CC1` [Example 232, 1,1-Dimethylethyl 1′-[(2S)-3-{3-[4-chloro-3-(3-phenylprop-1-yn-1-yl)phenyl]-5-(methylsulfonyl)-4,5,6,7-tetrahydro-1H-pyrazolo[4,3-c]pyridin-1-yl}-2-hydroxypropyl]-4,4′-bipiperidine-1-carboxylate]: the IC50 worked out at 1.53 µM. For `CC(C)(C)OC(=O)N1CCC(C2CCN(C[C@H](O)Cn3nc(-c4ccc(Cl)c(C#Cc5ccccn5)c4)c4c3CCN(S(C)(=O)=O)C4)CC2)CC1` [Example 234, 1,1-Dimethylethyl 1′-[(2S)-3-{3-[4-chloro-3-(pyridin-2-ylethynyl)phenyl]-5-(methylsulfonyl)-4,5,6,7-tetrahydro-1H-pyrazolo[4,3-c]pyridin-1-yl}-2-hydroxypropyl]-4,4′-bipiperidine-1-carboxylate], the 50% inhibitory concentration (IC50) is 0.28 µM. Take `CC(C)(C)OC(=O)N1CCC(C2CCN(C[C@H](O)Cn3nc(-c4ccc(Cl)c(C#Cc5cccnc5)c4)c4c3CCN(S(C)(=O)=O)C4)CC2)CC1` [Example 235, 1,1-Dimethylethyl 1′-[(2S)-3-{3-[4-chloro-3-(pyridin-3-ylethynyl)phenyl]-5-(methylsulfonyl)-4,5,6,7-tetrahydro-1H-pyrazolo[4,3-c]pyridin-1-yl}-2-hydroxypropyl]-4,4′-bipiperidine-1-carboxylate]: the half-maximal inhibitory concentration (IC50) amounted to 0.33 µM. For `CC(C)CC#Cc1cc(-c2nn(C[C@@H](O)CN3CCC(C4CCNCC4)CC3)c3c2CN(S(C)(=O)=O)CC3)ccc1Cl` [Example 239, (2S)-1-(4,4′-Bipiperidin-1-yl)-3-{3-[4-chloro-3-(4-methylpent-1-yn-1-yl)phenyl]-5-(methylsulfonyl)-4,5,6,7-tetrahydro-1H-pyrazolo[4,3-c]pyridin-1-yl}propan-2-ol], the concentration for half-maximal inhibition (IC50) was 0.61 µM. Regarding `C[C@H]1COCCN1CCCn1nc(-c2ccc(Cl)c(CCc3ccc(CNCc4ccc(Cl)cc4)cc3)c2)c2c1CCN(C(N)=O)C2` [Example 244, 3-(4-Chloro-3-{2-[4-({[(4-chlorophenyl)methyl]amino}methyl)phenyl]ethyl}phenyl)-1-{3-[(3S)-3-methylmorpholin-4-yl]propyl}-1,4,6,7-tetrahydro-5H-pyrazolo[4,3-c]pyridine-5-carboxamide], the IC50 came out at 0.06 µM.

Values taken from US20080200454A1, “CARBON-LINKED TETRAHYDRO-PYRAZOLO-PYRIDINE MODULATORS OF CATHEPSIN S” (priority 2007, published 2008).
